Tests used:
Format in all cases: cell-based
[1] = tested on: phosphorylated Akt protein; experiment: Cellular PI3K / Akt pathway assay (phospho-Akt Ser473 sandwich ELISA); conditions: Homo sapiens; MCF7 cells, ß-Heregulin (20ng/ml) stimulation, 48h incubation
Protocol: In order to study the cellular activity of the compounds according to the present invention, an Enzyme Linked Immunosorbent Assay (ELISA)-based assay has been used specific phospho-AKT. The assay is based on a Sandwich ELISA kit (PathScan™ Phospho-Akt1 (Ser473); Cell Signaling, USA; #7160). The ELISA Kit detects endogenous levels of phosphorylated Akt protein. A phospho-Akt (Ser473) antibody (Cell Signaling, USA; #9271) has been coated onto the microwells. After incubation with cell lysates, the coated antibody captures the phosphorylated Akt protein. Following extensive washing, Akt1 monoclonal antibody (Cell Signaling, USA; #2967) is added to detect the captured phospho-Akt1 protein. HRP-linked anti-mouse antibody (HRP: horseradish peroxidase; Cell Signaling, USA; #7076) is then used to recognize the bound detection antibody. HRP substrate (= 3,3',5,5'-tetramethylbenzidine (TMB); Cell Signaling, USA; #7160) is added to develop colour. The magnitude of optical density for this developed color is proportional to the quantity of phosphorylated Akt protein. MCF7 cells (ATCC HTB-22) are seeded into 96 well fate bottom plates at a density of 10000 cells/well. 24 hours after seeding, the cells are serum starved using low-serum medium (IMEM media including 0,1% charcoal treated FCS (FCS: fetal calf serum)). […] To stimulate Akt phosphorylation, ß-Heregulin (20ng/ml ß-HRG) is added in parallel to the compounds. Wells containing unstimulated control cells (no ß-Heregulin stimulation) are incubated with or without the diluted compound. Wells containing untreated control cells (no compound) are filled with medium containing 0.5% v:v DMSO and are or are not stimulated with ß-Heregulin. Cells are harvested and lysed with brief sonification in 1x cell lysis buffer (20mM Tris (pH7.5), 150 mM NaCl, 1 mM ethylene diaminetetraacetate (EDTA), 1 mM ethylene glycolbis(2-aminoethyl)-N,N,N',N'-tetraacetic acid (EGTA), 1vol% Triton X-100, 2.5mM sodium pyrophosphate, 1 mM β-glycerolphosphate, 1 mM Na3VO4, 1µg/ml leupeptin). The lysate is centrifuged for 10 min. at 4°C and the supernatant is transferred to a new tube. 100 µl of sample diluent (0.1vol% Tween-20, 0.1vol% sodium azide in phosphate buffered saline (PBS)) are added to a microcentrifuge tube and 100 µl of cell lysate are transferred into the tube and vortexed. 100 µl of each diluted cell lysate are added to the appropriate ELISA well, and incubated overnight at 4°C. The plates are washed 4 times with 1x wash buffer (1vol% tween-20, 0.33vol% thymol, in PBS). Next 100 µl of detection antibody (Akt1 (2H10) monoclonal detection antibody; Cell Signaling, USA; #2967) are added to each well and incubation continued for 1h at 37°C. The washing procedure is repeated between each step. 100µl of secondary antibody (anti-mouse IgG HRP-linked antibody; Cell Signaling, USA; #7076) are added to each well and incubated for 30 min. at 37°C. Than, 100µl of TMB substrate (0.05% 3,3',5,5' tetramethylbenzidine, 0.1 % hydrogen peroxide, complex polypeptides in a buffered solution; Cell Signaling, USA; #7160) are added to each well and incubated for 30 min. at 25°C. Finally 100 µl of STOP solution (0.05vol% α and β unsaturated carbonyl compound) are added to each well and the plate are shaked gently. The absorbance is measured at λ =450 nm (Wallac Victor2; Perkin Elmer, USA) within 30 min. after adding the STOP solution. The analysis of the data is performed using a statistical program (Excel; Microsoft, USA). Preferred compounds show an inhibitory activity towards Akt phosphorylation below 10µM.

phosphorylated GSK3 = experiment: Cellular pGSK3 assay (phospho-GSK3 Ser9 sandwich ELISA); conditions: Homo sapiens; MCF7 cells, 48h incubation, IC50 of pGSK3 inhibition
Protocol: In order to study the cellular activity of the compounds according to the present invention, an ELISA-based assay has been established for the phosphorylated protein glycogen synthetase kinase 3 (GSK3). The assay is based on a solid phase sandwich ELISA that detects endogenous levels of phosphorylated GSK3 using a phospho-GSK3 (Ser9) specific antibody (BioSource International, Inc.; Catalog #KHO0461). After incubation with cell lysates, the coated antibody captures the phosphorylated GSK3 protein. Following extensive washing, GSK3 polyclonal antibody is added to detect the captured phospho-GSK3 protein. Secondary antibody (anti-rabbit IgG-HRP) is then used to recognize the bound detection antibody. After the second incubation and washing to remove all the excess anti-rabbit IgG-HRP, a substrate solution is added, which is acted upon by the bound enzyme to produce color. The intensity of this colored product is directly proportional to the concentration of GSK-3β [pS9] present in the original specimen. MCF7 cells (ATCC HTB-22) were seeded into 96 well fate bottom plates at a density of 10000 cells/well. After 24 h 1 µl each of the compound dilutions (test compounds were dissolved as 10 mM solutions in dimethylsulfoxide (DMSO) and subsequently diluted) were added into each well of the 96 well plates and incubated for 48h at 37°C in a humidified athmosphere containing 5% CO2. Cells were harvested and lysed in cell extraction buffer (10 mM Tris, pH 7.4, 100 mM NaCl, 1 mM EDTA, 1 mM EGTA, 1 mM NaF, 20 mM Na4P2O7, 2 mM Na3VO4, 1% Triton X-100, 10vol% glycerol, 0.1vol% SDS, 0.5vol% deoxycholate, 1 mM phenylmethylsulfonylfluorid (PMSF)). The lysate were centrifuged for 10 min. at 4°C and the supernatant were transferred to a new tube. 50 µl of sample diluent (standard diluent buffer, Biosource) were added and 100 µl of cell lysate transferred into the tube and vortexed. 100 µl of each diluted cell lysate were added to the appropriate ELISA well plate and incubated for 3h at room temperature. The plates were washed 4 times with 1x wash buffer (Biosource). 50 µl of detection antibody (GSK3 (Ser9) detection antibody; BioSource) were added to each well and incubated for 30 min. at room temperature. The washing procedure was repeated between each step. 100µl of HRP-linked secondary antibody (anti-mouse IgG HRP-linked antibody) were added to each well and incubated for 30 min. at room temperature. 100µl of TMB substrate (0.05vol% 3,3',5,5' tetramethylbenzidine, 0.1vol% hydrogen peroxide, complex polypeptides in a buffered solution; Biosource) were added to each well and incubated for 30 min. at room temperature. Finally 100 µl of Stop solution (0.05vol% α and β unsaturated carbonyl compound) were added to each well and the plate were shaked gently for a few seconds. The absorbance was measured at λ = 450 nm (Wallac Victor2; Perkin Elmer, USA) within 30 min. after adding the stop solution. The analysis of the data was performed using a statistical program (Excel; Microsoft, USA) and the IC50 of pGSK3 inhibition was determined.

OvCAR3 cells = experiment: Cellular proliferation / Cytotoxicity assay (Alamar Blue / Resazurin cell viability); conditions: Homo sapiens, OVCAR-3, 48h incubation, read-out: Anti-proliferative / Cytotoxic activity (OvCAR3 cells)
Protocol: Wells containing untreated control cells were filled with 200 µl DMEM (Dulbecco's Modified Eagle Medium) containing 0.5vol% v:v DMSO. The cells are then incubated with the substances for 48h at 37°C in a humidified atmosphere containing 5vol% CO2. To determine the viability of the cells, 20 µl of a Resazurin solution (90mg / I) are added. […] Viabilities are expressed as % values.

Structure (SMILES)	IC50 [1] [nM]	IC50 (phosphorylated GSK3) [nM]	IC50 (OvCAR3 cells) [nM]
c1ccc(-c2c(-c3ccc(CN4CCC(c5n[nH]c(-c6ccccn6)n5)CC4)cc3)nc3ncccn23)cc1 [Example 1, 3-phenyl-2-(4-{[4-(5-pyridin-2-yl-1,2,4-triazol-3-yl)piperidin-1-yl]methyl}phenyl)imidazo[1,2-a]pyrimidine]	< 1000	1000 to 10000	< 10000
c1ccc(-c2c(-c3ccc(CN4CCC(c5n[nH]c(-c6ccccn6)n5)CC4)cc3)nc3ccccn23)cc1 [Example 2, 3-phenyl-2-(4-{[4-(5-pyridin-2-yl-1H-1,2,4-triazol-3-yl)piperidin-1-yl]methyl}phenyl)imidazo[1,2-a]pyridine]	< 1000	1000 to 10000	< 10000
c1ccc(-c2c(-c3ccc(CN4CCC(c5n[nH]c(-c6ccccn6)n5)CC4)cc3)nc3nccnn23)cc1 [Example 3, 7-phenyl-6-(4-{[4-(5-pyridin-2-yl-1H-1,2,4-triazol-3-yl)piperidin-1-yl]methyl}phenyl)imidazo[1,2-b][1,2,4]triazine]	< 1000	< 1000	< 10000
c1ccc(-c2c(-c3ccc(CN4CCC(c5nc(-c6cnccn6)no5)CC4)cc3)nc3ncccn23)cc1 [Example 4, 3-phenyl-2-(4-{[4-(3-pyrazin-2-yl-1,2,4-oxadiazol-5-yl)piperidin-1-yl]methyl}phenyl)imidazo[1,2-a]pyrimidine]		1000 to 10000	> 10000
N#Cc1cccn2c(-c3ccccc3)c(-c3ccc(CN4CCC(c5n[nH]c(-c6ccccn6)n5)CC4)cc3)nc12 [Example 5, 3-phenyl-2-(4-{[4-(5-pyridin-2-yl-1,2,4-triazol-3-yl)piperidin-1-yl]methyl}phenyl)imidazo[1,2-a]pyridine-8-carbonitrile]	< 1000	< 1000	
Brc1ccc2nc(-c3ccc(CN4CCC(c5n[nH]c(-c6ccccn6)n5)CC4)cc3)c(-c3ccccc3)n2c1 [Example 6, 6-bromo-3-phenyl-2-(4-{[4-(5-pyridin-2-yl-1,2,4-triazol-3-yl)piperidin-1-yl]methyl}phenyl)imidazo[1,2-a]pyridine]	< 1000	1000 to 10000	< 10000
Clc1nccn2c(-c3ccccc3)c(-c3ccc(CN4CCC(c5n[nH]c(-c6ccccn6)n5)CC4)cc3)nc12 [Example 26, 8-chloro-3-phenyl-2-(4-{[4-(5-pyridin-2-yl-1,2,4-triazol-3-yl)piperidin-1-yl]methyl}phenyl)imidazo[1,2-a]pyrazine]		1000 to 10000	< 10000
FC(F)(F)c1ccn2c(-c3ccccc3)c(-c3ccc(CN4CCC(c5n[nH]c(-c6ccccn6)n5)CC4)cc3)nc2n1 [Example 28, 3-phenyl-2-(4-{[4-(5-pyridin-2-yl-1,2,4-triazol-3-yl)piperidin-1-yl]methyl}phenyl)-7-(trifluoromethyl)imidazo[1,2-a]pyrimidine]		1000 to 10000	< 10000
Clc1ccc2nc(-c3ccc(CN4CCC(c5n[nH]c(-c6ccccn6)n5)CC4)cc3)c(-c3ccccc3)n2n1 [Example 31, 6-chloro-3-phenyl-2-(4-{[4-(5-pyridin-2-yl-1,2,4-triazol-3-yl)piperidin-1-yl]methyl}phenyl)imidazo[1,2-b]pyridazine]	< 1000	< 1000	
c1ccc(-c2nc(C3CCN(Cc4ccc(-c5nc6ncccn6c5-c5cccs5)cc4)CC3)n[nH]2)nc1 [Example 35, 2-(4-{[4-(5-pyridin-2-yl-1,2,4-triazol-3-yl)piperidin-1-yl]methyl}phenyl)-3-(2-thienyl)imidazo[1,2-a]pyrimidine]		1000 to 10000	< 10000
c1ccc(-c2nc(C3CCN(Cc4ccc(-c5nc6ncccn6c5-c5ccncc5)cc4)CC3)n[nH]2)nc1 [Example 36, 3-pyridin-4-yl-2-(4-{[4-(5-pyridin-2-yl-1,2,4-triazol-3-yl)piperidin-1-yl]methyl}phenyl)imidazo[1,2-a]pyrimidine]		1000 to 10000	> 10000
NC(=O)c1cccn2c(-c3ccccc3)c(-c3ccc(CN4CCC(c5n[nH]c(-c6ccccn6)n5)CC4)cc3)nc12 [Example 40, 3-phenyl-2-(4-{[4-(5-pyridin-2-yl-1,2,4-triazol-3-yl)piperidin-1-yl]methyl}phenyl)imidazo[1,2-a]pyridine-8-carboxamide]	< 1000	< 1000	
Fc1ccccc1-c1c(-c2ccc(CN3CCC(c4n[nH]c(-c5ccccn5)n4)CC3)cc2)nc2ncccn12 [Example 41, 3-(2-fluorophenyl)-2-(4-{[4-(5-pyridin-2-yl-1,2,4-triazol-3-yl)piperidin-1-yl]methyl}phenyl)imidazo[1,2-a]pyrimidine]	< 1000		
c1ccc(-c2nc(C3CCN(Cc4ccc(-c5nc6sccn6c5-c5nccs5)cc4)CC3)n[nH]2)nc1 [Example 42, 6-(4-{[4-(5-pyridin-2-yl-1,2,4-triazol-3-yl)piperidin-1-yl]methyl}phenyl)-5-(1,3-thiazol-2-yl)imidazo[2,1-b][1,3]thiazole]	< 1000		
